Experiments:
Assay type in all cases: cell-based
ARwt = target: T1, ARwt (Homo sapiens, UniProt P10275); assay: ARE-luciferase reporter in PC-3 cells expressing ARwt; conditions: 1 nM DHT, 100 nM peptidomimetic, 48 h
T1 construct: expressed in transfected cells; host or cells: PC-3 cells (A3); M12 cells (A8)
T1 sequence (P10275 1-920): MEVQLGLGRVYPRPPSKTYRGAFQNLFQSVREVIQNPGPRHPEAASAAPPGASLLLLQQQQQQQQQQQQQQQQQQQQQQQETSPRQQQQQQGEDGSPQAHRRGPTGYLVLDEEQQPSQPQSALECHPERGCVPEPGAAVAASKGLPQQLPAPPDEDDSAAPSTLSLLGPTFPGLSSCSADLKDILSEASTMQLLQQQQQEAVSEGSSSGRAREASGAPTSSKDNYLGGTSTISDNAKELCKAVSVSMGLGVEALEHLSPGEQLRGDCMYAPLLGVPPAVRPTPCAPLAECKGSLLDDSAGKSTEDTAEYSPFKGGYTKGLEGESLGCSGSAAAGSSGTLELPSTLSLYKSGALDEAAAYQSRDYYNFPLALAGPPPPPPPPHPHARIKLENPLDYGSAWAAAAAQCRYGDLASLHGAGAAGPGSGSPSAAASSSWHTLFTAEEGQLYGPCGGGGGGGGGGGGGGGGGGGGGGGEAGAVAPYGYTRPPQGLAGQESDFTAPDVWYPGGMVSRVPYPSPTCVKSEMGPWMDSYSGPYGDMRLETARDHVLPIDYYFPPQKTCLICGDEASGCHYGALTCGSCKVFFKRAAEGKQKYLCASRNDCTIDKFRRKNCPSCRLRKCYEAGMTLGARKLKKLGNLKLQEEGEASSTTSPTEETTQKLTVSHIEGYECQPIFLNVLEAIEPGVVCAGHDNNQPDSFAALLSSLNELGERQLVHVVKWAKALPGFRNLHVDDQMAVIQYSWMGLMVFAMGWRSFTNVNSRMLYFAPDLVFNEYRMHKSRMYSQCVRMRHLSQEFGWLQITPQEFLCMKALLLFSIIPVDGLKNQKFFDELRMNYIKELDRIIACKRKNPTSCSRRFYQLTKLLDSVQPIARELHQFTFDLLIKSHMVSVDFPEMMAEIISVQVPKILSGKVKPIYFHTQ
Method: (§1) FIGS. 2A-D. Oligobenzamide control of PC3 cell proliferation. (FIG. 2A) Structure of AR deletion mutants with numbered exons (FIG. 2B) Effect of D2 and T6 on basal (AI) and AD transcription. PC-3 cells were transiently transfected with ARE-luciferase along with plasmids expressing ARwt (FIG. 2B), ARv7 (FIG. 2C) or ARΔ1 (FIG. 2D). Cells were maintained for 48 h either without (EtOH) or with (1 nM DHT) and in the presence of 100 nM of peptidomimetic or volume equivalent of vehicle (DMSO) control. Luciferase assay results are shown. Data is normalized to the basal level of expression with AR wt in PC3 cells.
(§2) Since the WxxLF motif is also present in the truncated forms of the androgen receptor, the inventors then evaluated the ability of the peptidomimetics to block ARv7-driven transcription from a minimal ARE luciferase reporter. […] These findings were confirmed with a synthetic AR with point mutations in the WxxLF motif (data not shown).

ARΔ1 = target: T2, ARΔ1 (Homo sapiens, UniProt P10275); assay: ARE-luciferase reporter in PC-3 cells expressing ARΔ1; conditions: 100 nM peptidomimetic, 48 h
T2 construct: expressed in transfected cells; host or cells: PC-3 cells
T2 sequence (P10275 540-920 limits assumed): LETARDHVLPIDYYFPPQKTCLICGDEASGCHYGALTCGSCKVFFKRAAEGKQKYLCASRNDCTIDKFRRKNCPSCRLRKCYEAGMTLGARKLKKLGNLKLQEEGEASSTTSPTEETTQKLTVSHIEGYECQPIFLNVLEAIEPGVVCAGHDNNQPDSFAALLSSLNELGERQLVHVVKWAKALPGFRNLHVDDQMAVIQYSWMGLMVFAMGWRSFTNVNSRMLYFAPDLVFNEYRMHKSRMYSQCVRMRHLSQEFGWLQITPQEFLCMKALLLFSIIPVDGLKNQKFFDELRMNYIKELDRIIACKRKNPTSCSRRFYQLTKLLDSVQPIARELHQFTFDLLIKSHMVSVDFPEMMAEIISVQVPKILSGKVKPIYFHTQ
Method: as §1, §2

AR567 = target: T3, AR567 (Homo sapiens, UniProt P10275); assay: ARE-luciferase reporter in PC-3 cells expressing AR567; conditions: 100 nM peptidomimetic, 48 h
T3 construct: expressed in transfected cells; host or cells: PC-3 cells
T3 sequence (P10275 with tags, fused parts or gaps limits assumed): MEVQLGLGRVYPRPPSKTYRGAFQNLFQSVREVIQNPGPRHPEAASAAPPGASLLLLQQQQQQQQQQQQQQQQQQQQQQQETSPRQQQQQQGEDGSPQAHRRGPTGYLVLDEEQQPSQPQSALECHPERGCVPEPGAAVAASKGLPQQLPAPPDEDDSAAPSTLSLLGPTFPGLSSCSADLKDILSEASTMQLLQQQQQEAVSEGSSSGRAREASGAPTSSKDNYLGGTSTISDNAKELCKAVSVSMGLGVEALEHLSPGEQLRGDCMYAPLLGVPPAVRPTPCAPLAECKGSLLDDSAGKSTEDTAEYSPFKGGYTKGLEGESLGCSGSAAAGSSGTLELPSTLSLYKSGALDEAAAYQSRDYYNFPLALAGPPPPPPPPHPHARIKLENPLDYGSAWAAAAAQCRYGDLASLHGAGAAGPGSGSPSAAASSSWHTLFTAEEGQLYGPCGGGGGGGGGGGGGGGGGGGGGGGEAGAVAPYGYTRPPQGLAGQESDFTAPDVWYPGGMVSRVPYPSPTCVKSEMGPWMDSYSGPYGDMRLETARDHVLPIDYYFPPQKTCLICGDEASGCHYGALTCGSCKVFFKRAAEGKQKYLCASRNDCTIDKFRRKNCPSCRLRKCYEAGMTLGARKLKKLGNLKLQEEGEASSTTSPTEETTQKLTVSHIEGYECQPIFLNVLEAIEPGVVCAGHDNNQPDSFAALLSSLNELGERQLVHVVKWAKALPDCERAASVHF
Method: FIGS. 3A-B. Effect of T6 on basal transcription driven by splice variants. PC-3 cells were transiently transfected with ARE-luciferase along with plasmids expressing ARv7 (FIG. 3A) or AR567 (FIG. 3B). Cells were maintained for 48 h either without (EtOH) or with (1 nM DHT) and in the presence of 100 nM of peptidomimetic or volume equivalent of vehicle (DMSO) control. Luciferase assay results are shown. Data is normalized to the basal level of expression with AR wt in PC3 cells.

wtAR = target: T4, wtAR (Homo sapiens, UniProt P10275); assay: Rat probasin-luciferase reporter in M12 cells with ARwt; conditions: 100 nM peptidomimetic, 48 h
T4 construct: expressed in transfected cells; host or cells: PC-3 cells (A3); M12 cells (A8)
T4 sequence (P10275 1-920): T1 sequence (P10275 1-920)
Method: FIG. 5. Effect of T6 on basal level of ARE expression in M12 cells. M12 cells were transiently transfected with the rat probasin-luciferase reporter and either ARwt or ARv7. Cells were maintained for 48 h without (EtOH) and in the presence of 100 nM of peptidomimetic or volume equivalent of vehicle (DMSO) control or 10 μM of MDV3100. Luciferase assay results are shown.

## CC(C)COc1cc(C(N)=O)ccc1NC(=O)c1ccc(NC(=O)c2ccc([N+](=O)[O-])c(OCCc3ccc4ccccc4c3)c2)c(OCC(C)C)c1 [T6]
ARwt
  Ligand dependent transcription mediated by ARwt: able to suppress
ARΔ1
  ARΔ1-mediated transcription: not able to block
AR567
  transcription driven by AR567 splice variant: decreases
wtAR
  expression of rat probasin reporter in M12 cells driven by wtAR: able to independently knock down

From patent US9458095B2, “Oligo-benzamide compounds and their use in treating cancers” (The Board of Regents of the University of Texas System, priority 2011, dated 2016)
